# What was measured:
# [1] = Antiproliferative activity against human 3AO cells; type: functional, cell-based
# [2] = tested on: HeLa; experiment: Antiproliferative activity against human HeLa cells; type: functional, cell-based
# [3] = tested on: PC-3; experiment: Antiproliferative activity against human PC-3 cells; type: functional, cell-based
# [4] = tested on: MCF7; experiment: Antiproliferative activity against human MCF7 cells; type: functional, cell-based
# [5] = tested on: K562; experiment: Antiproliferative activity against human K562 cells; type: functional, cell-based
# [6] = tested on: BEAS-2B; experiment: Antiproliferative activity against human BEAS-2B cells; type: functional, cell-based
# [7] = biological target: T1, Vascular endothelial growth factor receptor 2 (Homo sapiens, UniProt P35968); experiment: Inhibition of VEGFR2 (unknown origin) at 1 uM relative to control
# T1 sequence (P35968 whole entry): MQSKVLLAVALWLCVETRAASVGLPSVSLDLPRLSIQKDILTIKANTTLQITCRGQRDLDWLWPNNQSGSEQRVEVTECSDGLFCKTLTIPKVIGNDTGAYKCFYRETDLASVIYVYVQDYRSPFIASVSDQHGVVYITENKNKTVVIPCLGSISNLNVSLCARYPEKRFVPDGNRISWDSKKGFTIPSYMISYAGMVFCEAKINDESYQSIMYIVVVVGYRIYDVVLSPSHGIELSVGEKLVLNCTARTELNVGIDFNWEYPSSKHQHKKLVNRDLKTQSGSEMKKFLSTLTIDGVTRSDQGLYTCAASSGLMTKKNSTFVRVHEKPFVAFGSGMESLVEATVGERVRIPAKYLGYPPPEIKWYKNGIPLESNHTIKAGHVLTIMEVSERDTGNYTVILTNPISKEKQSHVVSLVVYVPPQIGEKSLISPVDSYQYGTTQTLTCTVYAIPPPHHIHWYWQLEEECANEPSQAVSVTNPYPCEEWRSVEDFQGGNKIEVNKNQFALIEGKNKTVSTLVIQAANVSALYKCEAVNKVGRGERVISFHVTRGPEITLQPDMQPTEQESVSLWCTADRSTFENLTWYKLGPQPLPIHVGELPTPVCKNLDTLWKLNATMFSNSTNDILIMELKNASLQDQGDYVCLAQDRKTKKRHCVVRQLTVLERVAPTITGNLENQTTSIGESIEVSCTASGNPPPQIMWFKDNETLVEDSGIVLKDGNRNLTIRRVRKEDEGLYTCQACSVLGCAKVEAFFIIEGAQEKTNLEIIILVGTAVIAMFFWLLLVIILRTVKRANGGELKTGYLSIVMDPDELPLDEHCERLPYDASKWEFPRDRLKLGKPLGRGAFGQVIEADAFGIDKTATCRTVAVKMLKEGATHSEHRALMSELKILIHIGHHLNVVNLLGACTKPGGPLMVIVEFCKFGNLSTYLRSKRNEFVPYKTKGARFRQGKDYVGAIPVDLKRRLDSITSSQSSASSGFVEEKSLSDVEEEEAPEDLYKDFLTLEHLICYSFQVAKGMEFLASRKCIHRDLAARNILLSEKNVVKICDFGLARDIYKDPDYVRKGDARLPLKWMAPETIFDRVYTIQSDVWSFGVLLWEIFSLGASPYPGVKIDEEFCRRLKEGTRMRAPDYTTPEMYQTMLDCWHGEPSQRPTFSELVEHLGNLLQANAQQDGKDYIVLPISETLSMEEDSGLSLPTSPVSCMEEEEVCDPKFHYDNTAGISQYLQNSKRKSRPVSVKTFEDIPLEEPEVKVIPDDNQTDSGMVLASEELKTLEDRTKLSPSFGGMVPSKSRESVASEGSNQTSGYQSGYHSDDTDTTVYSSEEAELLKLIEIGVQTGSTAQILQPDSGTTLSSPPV
# [8] = biological target: Glutamate [NMDA] receptor; experiment: Displacement of [3H]MDL from NMDA receptor (unknown origin); type: protein-complex assay, Homo sapiens
# [9] = Displacement of [3H]AMPA from NMDA receptor (unknown origin); type: protein-complex assay, Homo sapiens
# [10] = biological target: T1, Vascular endothelial growth factor receptor 2
# [11] = tested on: HepG2; experiment: Antiproliferative activity against human HepG2 cells; type: functional, cell-based
# [12] = biological target: T2, Glutamate receptor ionotropic AMPA (Homo sapiens, UniProt P42261+P42262+P42263+P48058); experiment: Displacement of [3H]kainic acid from AMPA receptor (unknown origin); type: protein-complex assay
# [13] = biological target: T2, Glutamate receptor ionotropic AMPA; experiment: Displacement of [3H]AMPA from AMPA receptor (unknown origin); type: protein-complex assay
# [14] = biological target: T2, Glutamate receptor ionotropic AMPA; experiment: Displacement of [3H]CNQX from AMPA receptor (unknown origin); type: protein-complex assay
# [15] = biological target: Glutamate [NMDA] receptor; experiment: Displacement of [3H]MK-801 from NMDA receptor (unknown origin); type: protein-complex assay, Homo sapiens
# [16] = biological target: T2, Glutamate receptor ionotropic AMPA; experiment: Antagonist activity at AMPA receptor (unknown origin) assessed as AMPA-induced depolarizations; type: protein-complex assay
# [17] = Displacement of [3H]glycine from AMPA receptor (unknown origin); type: protein-complex assay, Homo sapiens
# [18] = biological target: Glutamate [NMDA] receptor; experiment: Antagonist activity at NMDA receptor (unknown origin) assessed as NMDA-induced depolarizations; type: protein-complex assay, Homo sapiens
# [19] = biological target: Glutamate receptor ionotropic, kainate 2 (Homo sapiens, UniProt Q13002); experiment: Binding affinity to GluK2 receptor (unknown origin)
# [20] = biological target: Glutamate receptor ionotropic, kainate 1 (Homo sapiens, UniProt P39086); experiment: Binding affinity to GluK1 receptor (unknown origin)
# Chain of Glutamate receptor ionotropic, kainate 1 (P39086 whole entry): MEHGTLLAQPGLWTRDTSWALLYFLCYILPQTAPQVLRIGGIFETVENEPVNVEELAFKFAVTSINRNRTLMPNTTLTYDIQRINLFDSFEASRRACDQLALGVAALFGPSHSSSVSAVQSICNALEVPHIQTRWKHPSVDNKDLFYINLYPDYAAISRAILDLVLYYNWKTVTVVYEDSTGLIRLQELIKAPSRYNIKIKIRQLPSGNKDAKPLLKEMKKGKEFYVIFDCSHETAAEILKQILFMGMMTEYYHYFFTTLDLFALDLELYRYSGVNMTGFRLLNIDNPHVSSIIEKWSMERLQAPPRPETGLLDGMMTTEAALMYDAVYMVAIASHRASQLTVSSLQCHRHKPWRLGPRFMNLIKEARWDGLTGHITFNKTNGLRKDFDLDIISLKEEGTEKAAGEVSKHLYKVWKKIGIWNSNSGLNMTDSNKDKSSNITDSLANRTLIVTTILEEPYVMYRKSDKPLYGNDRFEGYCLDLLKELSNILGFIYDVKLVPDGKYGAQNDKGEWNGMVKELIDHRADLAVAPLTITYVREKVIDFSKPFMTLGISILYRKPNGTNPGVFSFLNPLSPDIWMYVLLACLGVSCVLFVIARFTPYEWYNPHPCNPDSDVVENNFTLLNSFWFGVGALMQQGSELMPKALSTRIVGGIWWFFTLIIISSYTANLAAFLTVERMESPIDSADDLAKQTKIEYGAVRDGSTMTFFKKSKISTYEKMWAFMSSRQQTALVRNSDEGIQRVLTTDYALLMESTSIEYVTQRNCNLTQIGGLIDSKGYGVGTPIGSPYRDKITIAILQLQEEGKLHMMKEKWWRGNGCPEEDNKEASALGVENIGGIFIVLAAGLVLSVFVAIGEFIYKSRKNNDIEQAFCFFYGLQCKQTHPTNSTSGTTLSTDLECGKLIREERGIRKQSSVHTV
# [21] = biological target: Glutamate receptor 2 (Homo sapiens, UniProt P42262); experiment: Binding affinity to GluA2 receptor (unknown origin)
# Chain of Glutamate receptor 2 (P42262 whole entry): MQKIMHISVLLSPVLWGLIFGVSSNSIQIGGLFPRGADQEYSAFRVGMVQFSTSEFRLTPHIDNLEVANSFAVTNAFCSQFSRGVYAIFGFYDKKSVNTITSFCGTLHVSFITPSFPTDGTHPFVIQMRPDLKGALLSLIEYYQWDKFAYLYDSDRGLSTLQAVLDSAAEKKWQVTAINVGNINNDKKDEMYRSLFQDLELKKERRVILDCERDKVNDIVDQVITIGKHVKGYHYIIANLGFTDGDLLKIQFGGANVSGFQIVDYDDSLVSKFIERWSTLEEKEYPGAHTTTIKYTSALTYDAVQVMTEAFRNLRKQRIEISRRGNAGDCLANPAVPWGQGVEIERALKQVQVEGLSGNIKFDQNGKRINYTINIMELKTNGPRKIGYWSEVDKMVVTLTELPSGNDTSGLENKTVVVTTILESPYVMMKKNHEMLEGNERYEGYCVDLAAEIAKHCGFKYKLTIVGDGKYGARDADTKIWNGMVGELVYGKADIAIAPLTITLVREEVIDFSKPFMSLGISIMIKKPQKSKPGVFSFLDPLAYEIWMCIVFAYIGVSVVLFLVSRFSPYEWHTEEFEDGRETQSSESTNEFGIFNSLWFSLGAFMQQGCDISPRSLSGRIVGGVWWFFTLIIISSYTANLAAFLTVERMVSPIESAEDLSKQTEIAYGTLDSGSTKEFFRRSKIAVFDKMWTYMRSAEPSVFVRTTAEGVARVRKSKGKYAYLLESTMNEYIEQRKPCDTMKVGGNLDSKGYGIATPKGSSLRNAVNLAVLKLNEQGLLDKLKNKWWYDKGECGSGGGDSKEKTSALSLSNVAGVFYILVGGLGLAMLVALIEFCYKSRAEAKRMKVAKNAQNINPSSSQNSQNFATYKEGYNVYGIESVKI
# [22] = biological target: T3, Glutamate receptor ionotropic, kainate 5 (Homo sapiens, UniProt Q16478); experiment: Binding affinity to GluK5 receptor (unknown origin)
# T3 sequence (Q16478 whole entry): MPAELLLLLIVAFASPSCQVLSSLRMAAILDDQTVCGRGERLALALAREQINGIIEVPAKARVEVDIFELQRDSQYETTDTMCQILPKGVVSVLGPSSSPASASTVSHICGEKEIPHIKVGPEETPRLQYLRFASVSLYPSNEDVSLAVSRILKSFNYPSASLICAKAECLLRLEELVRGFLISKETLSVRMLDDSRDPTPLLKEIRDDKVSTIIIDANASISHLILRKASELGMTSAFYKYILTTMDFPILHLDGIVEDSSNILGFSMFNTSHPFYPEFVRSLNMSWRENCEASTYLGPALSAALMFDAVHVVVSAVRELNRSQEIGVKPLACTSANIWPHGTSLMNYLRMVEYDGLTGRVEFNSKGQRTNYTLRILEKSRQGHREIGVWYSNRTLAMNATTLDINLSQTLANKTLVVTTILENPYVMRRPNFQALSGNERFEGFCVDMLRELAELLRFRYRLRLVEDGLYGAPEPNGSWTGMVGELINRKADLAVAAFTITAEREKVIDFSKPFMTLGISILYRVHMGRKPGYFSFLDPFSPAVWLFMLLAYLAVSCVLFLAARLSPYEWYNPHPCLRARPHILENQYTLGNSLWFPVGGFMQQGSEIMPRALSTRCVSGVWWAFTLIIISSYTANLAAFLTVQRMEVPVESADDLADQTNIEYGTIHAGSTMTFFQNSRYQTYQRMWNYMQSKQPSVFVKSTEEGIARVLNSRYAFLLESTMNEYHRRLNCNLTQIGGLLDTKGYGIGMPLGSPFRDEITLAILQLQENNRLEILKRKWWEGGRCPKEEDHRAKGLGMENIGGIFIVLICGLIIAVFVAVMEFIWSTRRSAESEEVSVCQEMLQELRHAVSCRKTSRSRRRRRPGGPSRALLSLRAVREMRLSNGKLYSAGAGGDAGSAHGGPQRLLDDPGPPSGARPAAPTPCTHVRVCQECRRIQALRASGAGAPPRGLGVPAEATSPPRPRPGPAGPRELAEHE
# [23] = Inhibition of lipid peroxidation at 100 uM by measuring MDA concentration; type: functional
# [24] = Inhibition of ALR2 (unknown origin); design: species or system Homo sapiens
# [25] = Antioxidant activity assessed as DPPH radical scavenging activity at 100 uM; type: functional
# [26] = Inhibition of ALR1 (unknown origin) relative to control; design: concentration or dose not given beside the values; details: Homo sapiens; concentration not given here
# [27] = Inhibition of Escherichia coli topoisomerase 4
# [28] = tested on: Pseudomonas aeruginosa; experiment: Antibacterial activity against Pseudomonas aeruginosa; type: functional
# [29] = tested on: Staphylococcus aureus; experiment: Antibacterial activity against Staphylococcus aureus; type: functional
# [30] = tested on: Escherichia coli; experiment: Antibacterial activity against Escherichia coli W3110; type: functional
# [31] = tested on: Streptococcus pneumoniae; experiment: Antibacterial activity against Streptococcus pneumoniae; type: functional
# [32] = tested on: HCT-116; experiment: Antiproliferative activity against human HCT-116 cells; type: functional, cell-based
# [33] = biological target: Epidermal growth factor receptor (Homo sapiens, UniProt P00533); experiment: Inhibition of wild-type EGFR (unknown origin)
# [34] = tested on: WI-38; experiment: Antiproliferative activity against human WI-38 cells; type: functional, cell-based
# [35] = biological target: Epidermal growth factor receptor (Homo sapiens, UniProt P00533, L858R); experiment: Inhibition of EGFR L858R mutant (unknown origin)
# Chain of Epidermal growth factor receptor (Homo sapiens, UniProt P00533, L858R) (P00533 25-1210 L858R limits assumed): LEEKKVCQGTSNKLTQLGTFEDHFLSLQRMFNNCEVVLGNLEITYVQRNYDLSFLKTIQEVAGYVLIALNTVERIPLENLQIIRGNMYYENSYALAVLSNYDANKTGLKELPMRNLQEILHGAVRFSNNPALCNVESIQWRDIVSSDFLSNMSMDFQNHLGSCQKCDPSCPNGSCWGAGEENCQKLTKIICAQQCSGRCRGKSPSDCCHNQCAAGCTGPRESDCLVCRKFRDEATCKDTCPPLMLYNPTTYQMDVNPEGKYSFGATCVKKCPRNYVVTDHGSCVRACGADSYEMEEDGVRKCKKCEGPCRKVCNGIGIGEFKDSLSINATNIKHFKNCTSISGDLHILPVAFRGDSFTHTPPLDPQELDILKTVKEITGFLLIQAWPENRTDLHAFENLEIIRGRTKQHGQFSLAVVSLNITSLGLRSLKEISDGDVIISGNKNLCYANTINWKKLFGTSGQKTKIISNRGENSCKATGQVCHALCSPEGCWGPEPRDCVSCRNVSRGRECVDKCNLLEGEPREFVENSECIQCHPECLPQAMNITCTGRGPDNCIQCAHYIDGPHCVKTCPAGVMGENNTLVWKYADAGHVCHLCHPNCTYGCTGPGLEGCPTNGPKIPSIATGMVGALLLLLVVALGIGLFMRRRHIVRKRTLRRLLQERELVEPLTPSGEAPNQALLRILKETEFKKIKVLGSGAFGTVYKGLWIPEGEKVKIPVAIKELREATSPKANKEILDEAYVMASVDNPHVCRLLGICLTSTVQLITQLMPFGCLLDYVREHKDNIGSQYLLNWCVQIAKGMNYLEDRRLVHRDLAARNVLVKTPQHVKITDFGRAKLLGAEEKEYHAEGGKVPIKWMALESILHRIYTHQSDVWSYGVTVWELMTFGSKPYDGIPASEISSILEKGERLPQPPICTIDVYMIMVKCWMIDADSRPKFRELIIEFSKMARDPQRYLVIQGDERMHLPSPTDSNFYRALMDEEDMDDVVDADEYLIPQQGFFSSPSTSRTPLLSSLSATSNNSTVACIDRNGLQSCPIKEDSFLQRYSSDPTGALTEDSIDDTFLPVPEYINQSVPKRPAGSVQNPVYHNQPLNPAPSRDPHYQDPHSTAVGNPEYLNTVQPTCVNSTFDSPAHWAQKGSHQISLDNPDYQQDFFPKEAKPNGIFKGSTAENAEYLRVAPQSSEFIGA
# [36] = Inhibition of KA-induced cytotoxicity in human hippocampal cell culture; type: toxicity, cell-based; details: Hippocampal neurone
# [37] = Cytotoxicity against mock-infected human MT4 cells; type: toxicity, cell-based
smiles,measurement,setting,value
O=C(Cn1c(=O)c(/C=C/c2ccncc2)nc2ccccc21)Nc1ccc(F)cc1,IC50,[1],> 100 µM
same,IC50,[2],> 100 µM
same,IC50,[3],59.9 µM
same,IC50,[4],49 µM
same,IC50,[5],> 100 µM
same,IC50,[6],> 100 µM
same,inhibition,[7],6%
O=C(Cc1ccsc1)NCc1cc(Br)cc2nc(O)c(O)nc12,IC50,[8],10 nM
same,IC50,[9],11300 nM
O=C(Cn1c(=O)c2nncn2c2ccccc21)Nc1ccc(C(=O)Nc2cc(Cl)ccc2Cl)cc1,IC50,[4],10.3 µM
same,IC50,[10],4.8 nM
same,IC50,[11],8.4 µM
O=c1[nH]c2cc(CO)c(CO)cc2[nH]c1=O,IC50,[12],> 100 µM
same,IC50,[13],9.3 µM
same,IC50,[14],9.2 µM
O=Cc1ccn(-c2cc3c(cc2Cl)nc(O)c2nc(C(=O)O)nn23)c1,IC50,[12],8.9 µM
same,IC50,[15],43 µM
same,IC50,[16],1200 nM
same,Ki,[17],28 µM
same,IC50,[18],23 µM
same,Ki,[13],530 nM
O=C(Nn1c(=O)c(=O)[nH]c2cc(C#Cc3ccccc3)ccc21)c1ccccc1,Ki,[19],100 µM
same,Ki,[20],> 100 µM
same,Ki,[21],23.6 µM
same,Ki,[22],> 100 µM
O=C(NCc1cc(Br)cc2nc(O)c(O)nc12)c1cccs1,IC50,[8],10 nM
same,IC50,[9],1600 nM
O=C(O)Cn1c(=O)c(Oc2ccc(O)cc2)nc2cc(F)ccc21,inhibition,[23],14.3%
same,IC50,[24],19.6 nM
same,Activity,[25],23.7%
same,inhibition,[26],11.8%
COc1ccc2ncc(=O)n(CCN3CCC(NCc4cc5c(cn4)OCCO5)CC3)c2c1,IC50,[27],5 nM
same,MIC,[28],4 µg/mL
same,MIC,[29],0.02 µg/mL
same,MIC,[30],0.5 µg/mL
same,MIC,[31],0.06 µg/mL
NNC(=O)/C=C1/Nc2ccc(Br)cc2NC1=O,IC50,[32],28.4 µM
same,IC50,[4],16.9 µM
same,IC50,[33],1550 nM
same,IC50,[11],18.6 µM
same,IC50,[34],227 µM
same,IC50,[35],87.3 nM
N#Cc1ccc2c(c1)N(CCN1CCC(NCc3ccc4c(n3)NC(=O)CO4)CC1)C(=O)CO2,IC50,[27],3.2 nM
same,MIC,[28],2 µg/mL
same,MIC,[29],0.13 µg/mL
same,MIC,[30],0.25 µg/mL
same,MIC,[31],0.5 µg/mL
O=c1[nH]c2cc([N+](=O)[O-])c(-n3ccnc3)nc2n2ccnc12,IC50,[36],300 nM
same,Ki,[13],57 nM
O=C(NCc1cc(Br)cc2[nH]c(=O)c(=O)[nH]c12)c1ccsc1,IC50,[8],10 nM
same,IC50,[9],2000 nM
O=C(Cn1c(=O)c(/C=C/c2ccncc2)nc2ccccc21)Nc1ccc(Cl)cc1,IC50,[1],> 100 µM
same,IC50,[2],> 100 µM
same,IC50,[3],> 100 µM
same,IC50,[4],> 100 µM
same,IC50,[5],50.4 µM
same,IC50,[6],> 100 µM
same,inhibition,[7],44%
O=C(O)c1nc2c(=O)[nH]c3cc(Cl)c(-n4cnnc4)cc3n2n1 [TQX-173],IC50,[12],11.6 µM
same,IC50,[16],2300 nM
same,Ki,[17],33.5 µM
same,IC50,[18],46 µM
same,Ki,[13],140 nM
O=c1[nH]c2ccc(Cl)c(Cl)c2nc1C(F)(F)F,MBC,[29],200 µM
same,MIC,[29],33 µM
same,CC50,[37],108 µM
O=c1[nH]c2cc([N+](=O)[O-])c([N+](=O)[O-])cc2[nH]c1=O [DNQX],IC50,[12],2.2 µM
same,IC50,[13],0.93 µM
same,IC50,[14],1.4 µM
O=c1[nH]c2ccc(Cl)c(Cl)c2nc1CBr,CC50,[37],24 µM
